The nature of series [1]: Stability test of amorphous form XIV (40° C., high humidity 92.5% RH, light; content, related substances). Format: physicochemical. How it is done: Pack the amorphous sample with nitrogen, shading, and moisture-proof, and place it under 40° C., high humidity 92.5% RH, light conditions, and take samples at 0 days/5 days/10 days to investigate its content, related substances and crystal forms (light conditions: total illuminance≥1.2×106 Lux·hr, near ultraviolet energy≥200 w·hr/m2).

Series [2] in a line: Hygroscopicity test, dynamic water adsorption (DVS). The format is physicochemical. How it is done: Take about 10 mg of the Amorphous form XIV sample of the compound of formula I for dynamic water adsorption (DVS) test.
Series [3] in a line: Physicochemical stability of crystalline form VI, one week storage (HPLC purity, XRPD form).
Series [4] can be described thus: Stability test of salt form screening (25° C., R.T./75% RH, light; HPLC, XRPD). Format: physicochemical. The method, then:
Take an appropriate amount of the compound into an 8 mL glass bottle, and then place it at room temperature (25° C., open), high humidity (room temperature/75% RH, open) and light (room temperature, white light: 6980 lux, UV 282 μW/cm2). Take samples for testing on the 5th, 10th, and 30th day (HPLC, XRPD).

The mark [5] stands for this setting: 10 Days, high humidity 92.5% RH.
The mark [6] stands for this setting: Light, room temperature, 5 Days.
[7] abbreviates: Light, room temperature, 10 Days.

Each structure is given as a SMILES string. Where a name gives a salt, the structure may show the parent alone.

Turning to `Cc1c(S(C)(=O)=O)c(-c2cc(F)cc(N3CCN(c4ccc(NS(=O)(=O)c5ccc(N[C@H](CCN6CCC(C(=O)OCCCP(=O)(O)O)CC6)CSc6ccccc6)c(S(=O)(=O)C(F)(F)F)c5)cc4)CC3)c2)c(-c2ccc(Cl)cc2)n1C(C)C` [Amorphous XIV], the “physical and chemical stability (summary statement)” value (from here on “physical and chemical stability”) in series [1] is “good physical and chemical stability”. Also, the “Content(%)” value in series [1] (0 Days) is on record as 99.5%; in series [1] (5 Days, 40° C.), 100.3%; in series [1] (5 Days, high humidity 92.5% RH), 100.7%; in series [1] (5 Days, light), 100.4%; in series [1] (10 Days, 40° C.) it was 99.7%; in series [1] (setting [5]), 99.7%. Moreover, in series [1] (10 Days, light), the “Content(%)” value is 100.1%. The “Total impurities (%)” value was 0.39% in series [1] (0 Days); 0.59% in series [1] (5 Days, 40° C.); 0.37% in series [1] (5 Days, high humidity 92.5% RH); 0.43% in series [1] (5 Days, light); 0.64% in series [1] (10 Days, 40° C.); 0.39% in series [1] (setting [5]). Further, the “Total impurities (%)” value in series [1] (10 Days, light) came to 0.41%. Moreover, in series [1] (packed with nitrogen, shading, moisture-proof), the “stability under high humidity and light conditions” value is “stable”. Besides, in series [1] (packed with nitrogen, shading, moisture-proof, 40° C.), the stability to heat result is “sensitive to heat”. The Hygroscopicity classification entry in series [2] (DVS, 80% RH) is listed as “Hygroscopic”. Also, the “Moisture gain (80% RH)” value in series [2] (DVS, 80% RH) turned out to be 4.83%. Moreover, the “water absorption during storage” value in series [2] (conclusion from DVS) was “easily absorb water”.

As to `Cc1c(S(C)(=O)=O)c(-c2cc(F)cc(N3CCN(c4ccc(NS(=O)(=O)c5ccc(N[C@H](CCN6CCC(C(=O)OCCCP(=O)(O)O)CC6)CSc6ccccc6)c(S(=O)(=O)C(F)(F)F)c5)cc4)CC3)c2)c(-c2ccc(Cl)cc2)n1C(C)C` [Crystal form VI], the “physical and chemical stability” value in series [3] was “good physical and chemical stability”. Moreover, in series [3] (25° C./60% RH and 40° C./75% RH for one week), the “change of purity and crystal form” value was “did not change significantly”. For the same molecule, the “HPLC purity (Peak area %)” value in series [3] (25° C./60% RH, one week) is given as 99.01 Peak area %; in series [3] (40° C./75% RH, one week) it was 99.06 Peak area %; in series [3] (Initial sample) it was 99.02 Peak area %. In addition, the Solid crystal form entry in series [3] (25° C./60% RH, one week) is reported as “Crystal form VI”; in series [3] (40° C./75% RH, one week) it was “Crystal form VI”; in series [3] (Initial sample) it was “Crystal form VI”.

As for `Cc1c(S(C)(=O)=O)c(-c2cc(F)cc(N3CCN(c4ccc(NS(=O)(=O)c5ccc(N[C@H](CCN6CCC(C(=O)OCCCP(=O)(O)O)CC6)CSc6ccccc6)c(S(=O)(=O)C(F)(F)F)c5)cc4)CC3)c2)c(-c2ccc(Cl)cc2)n1C(C)C` [Amorphous form XV of maleate salt], the “Total impurities (%)” value in series [4] (25° C., open, 5 Days) turned out to be 0.79%; in series [4] (25° C., open, 10 Days) it was 0.89%; in series [4] (25° C., open, 30 Days), 1.23%; in series [4] (Initial, 0 Days), 0.73%; in series [4] (setting [6]) it was 1.33%; in series [4] (setting [7]) it was 1.94%. The “Total impurities (%)” value in series [4] (R.T./75% RH, open, 5 Days) amounted to 1.59%; in series [4] (R.T./75% RH, open, 10 Days) it was 2.59%; in series [4] (R.T./75% RH, open, 30 Days), 7.00%.

For the molecule `Cc1c(S(C)(=O)=O)c(-c2cc(F)cc(N3CCN(c4ccc(NS(=O)(=O)c5ccc(N[C@H](CCN6CCC(C(=O)OCCCP(=O)(O)O)CC6)CSc6ccccc6)c(S(=O)(=O)C(F)(F)F)c5)cc4)CC3)c2)c(-c2ccc(Cl)cc2)n1C(C)C` [Amorphous form XVI of meglumine salt], the “physical and chemical stability” value in series [4] is “good physical and chemical stability”. Besides, the “Total impurities (%)” value is recorded as 0.95% in series [4] (25° C., open, 5 Days); 0.89% in series [4] (25° C., open, 10 Days); 0.88% in series [4] (25° C., open, 30 Days); 0.83% in series [4] (Initial, 0 Days); 1.33% in series [4] (setting [6]); 1.74% in series [4] (setting [7]). Moreover, the “Total impurities (%)” value in series [4] (R.T./75% RH, open, 5 Days) worked out at 1.36%; in series [4] (R.T./75% RH, open, 10 Days) it was 1.86%; in series [4] (R.T./75% RH, open, 30 Days), 4.95%.

Take `Cc1c(S(C)(=O)=O)c(-c2cc(F)cc(N3CCN(c4ccc(NS(=O)(=O)c5ccc(N[C@H](CCN6CCC(C(=O)OCCCP(=O)(O)O)CC6)CSc6ccccc6)c(S(=O)(=O)C(F)(F)F)c5)cc4)CC3)c2)c(-c2ccc(Cl)cc2)n1C(C)C` [Amorphous form XIII of sodium salt]: the “Total impurities (%)” value in series [4] (25° C., open, 5 Days) turned out to be 1.89%; in series [4] (25° C., open, 10 Days) it was 1.94%; in series [4] (25° C., open, 30 Days) it was 2.29%; in series [4] (Initial, 0 Days), 1.65%; in series [4] (setting [6]) it was 2.20%; in series [4] (setting [7]) it was 3.55%. The “Total impurities (%)” value in series [4] (R.T./75% RH, open, 5 Days) amounted to 2.45%; in series [4] (R.T./75% RH, open, 10 Days) it was 3.08%; in series [4] (R.T./75% RH, open, 30 Days), 6.31%.

As to `Cc1c(S(C)(=O)=O)c(-c2cc(F)cc(N3CCN(c4ccc(NS(=O)(=O)c5ccc(N[C@H](CCN6CCC(C(=O)OCCCP(=O)(O)O)CC6)CSc6ccccc6)c(S(=O)(=O)C(F)(F)F)c5)cc4)CC3)c2)c(-c2ccc(Cl)cc2)n1C(C)C` [Amorphous form XII of potassium salt], the “Total impurities (%)” value came out at 1.63% in series [4] (25° C., open, 5 Days); 1.58% in series [4] (25° C., open, 10 Days); 1.86% in series [4] (25° C., open, 30 Days); 1.40% in series [4] (Initial, 0 Days); 2.09% in series [4] (setting [6]); 2.69% in series [4] (setting [7]). In addition, the “Total impurities (%)” value in series [4] (R.T./75% RH, open, 5 Days) amounted to 2.25%; in series [4] (R.T./75% RH, open, 10 Days), 2.98%; in series [4] (R.T./75% RH, open, 30 Days) it was 6.11%.

Values taken from patent US12528832B2, “Crystalline or amorphous form of Bcl-2/Bcl-xL inhibitor compound or its salts” (ASCENTAGE PHARMA (SUZHOU) CO., LTD., priority 2020, dated 2026).
